Measured values as given in patent US11896649B2, “Methods and pharmaceutical compositions for the treatment of post-operative cognitive dysfunction” (INSERM (INSTITUT NATIONAL DE LA SANTE ET DE LA RECHERCHE …, priority 2016, dated 2024).

Key:
IL-6 mRNA = conditions: fractured mice, tissues collected 72 hours after fracture; FIG. 3b
Description: (§1) All mice were anaesthetized with 2-3% sevoflurane. Adequate anesthesia was ascertained by an absent pedal withdrawal reflex after hard pinching of the toe. Closed tibial fracture was performed as previously described (Minville et al 2008). Briefly, after antiseptic preparation of the right paw with povidone-iodine, a unilateral closed fracture was produced in the right tibia using a specially designed fracture apparatus (blunt guillotine). For the intramedullary pinning using a sterile technique, a hole was made above the tibial tuberosity per-cutaneously using a 27 G needle (BD Microlance—27G ¾L 19 mm). Then, the needle was directed straight into the medullary canal. By rotating the needle, the canal was reamed to 5 mm up to the ankle joint. The end of the needle was cut as short as possible so that the skin could roll over and covers it. No suture was performed. The mouse was then placed with the leg on the anvil in order to line up the blunt guillotine with the proximal third of the tibia. A 300 g weight was decreased from a height of 9 to 10 cm, fracturing the tibia shaft.
(§2) Apelin administration (ip, 0.5 umol/kg, Bachem) has been performed 1 hour before fracture and daily during the 15 consecutive days.

TNFa mRNA = conditions: fractured mice, tissues collected 72 hours after fracture; FIG. 3a
Description: as §1, §2

fractured mice [1] = test system: fractured mice
Description: as §1, §2

fractured mice [2] = conditions: 20 month old mice, i.p. apelin 0.5 nmol/kg before and during 3 days after the fracture, tested after 3 days; FIG. 4
Description: FIG. 4: Percentage of freezing in aged mice. Twenty month old male C57B16/j mice were fractured with (fracture apelin) or without (fracture PBS) an i.p treatment of apelin (0.5 nmol/kg) before and during 3 days after the fracture. After 3 days, animal hippocampal memory was tested by fear conditioning test. N=6 to 10, *p<0.05 compared to control.
To test the long-term memory and learning abilities, a fitness test to fear (Fear Conditioning Test) was used.
During the learning session, this test combines a painful and anxiety-producing event (2 short electrical discharges 0.3 mA 2 s on the legs) in an environmental context (floor cage with metal grills, washed several times a day with an alcoholic solution), visual (compound walls of black and white stripes, and white light patterns on the walls of the room) and sound (each discharge is preceded by a 80 dB sound 20 seconds). The learning phase lasted 4 minutes 25 seconds.
In the context of test sessions, conducted in the 3rd postoperative day, the animal was reintroduced in the same cage for 4 minutes. The context was the same but without sound stimulation or pain stimulus. […] Operator who ignored the treatment received by each animal evaluated the freezing time of each animal. […]

With apelin the “Hippocampus IL-6 mRNA expression” value (IL-6 mRNA) was “avoid IL-6 increase”, the “Hematoma TNFa mRNA expression” value (TNFa mRNA) was “strong decreased” and the “Pain and nociception measured by Von Frey technique” value (fractured mice [1]; apelin ip 0.5 umol/kg 1 hour before fracture and daily, tested at day 1, 5 and 15 after fracture, FIG. 1a) was “significantly decreased”. For the same substance, the “Pain and nociception measured by Hargreave's technique” value (fractured mice [1]; apelin ip 0.5 umol/kg 1 hour before fracture and daily, tested at day 1, 5 and 15 after fracture, FIG. 1b) was “significantly decreased”, the “Freezing rate in non-operated mice” value (fractured mice [1]; non-operated mice treated by apelin, FIG. 2) was “did not display change” and the “Freezing rate in operated mice, compared to operated mice receiving saline injections” value (fractured mice [1]; operated mice, daily injection of apelin, day 3 after fracture, FIG. 2) was “increased”. The “Hippocampal memory (percentage of freezing) in aged mice after fracture” value (fractured mice [2]) was “do not exhibit hippocampal memory failure”.
